Source: patent publication US11000601B2, “Conjugated biological molecules, pharmaceutical compositions and methods” (OBI Pharma, Inc., priority 2016, dated 2021)
Where “and” joins values, the source holds several entries; their conditions need not be identical. Identical values can stand only once. Square brackets hold non-standard residues; d marks the D form. Peptide text beside a SMILES is read from it. * marks the point of attachment. Dolaproine = CO[C@@H]([C@@H]1CCCN1)[C@@H](C)C(=O)O; Dil = CC[C@H](C)[C@H](NC)[C@@H](CC(=O)O)OC; X1 = C[C@@H](N*)[C@@H](O)c1ccccc1; NMeV = CN[C@H](C(=O)O)C(C)C

Key:
[1] = Body weight, mortality and signs of overt toxicity in MCF-7 implanted female nude (nu/nu) mice; assay type: in vivo, mouse; conditions: for Body Weight (g), individual animals No. 1-6: single animal; for Body Weight (g), individual mice: individual mice No. 1-6
Procedure: In a xenograft tumor model of human breast adenocarcinoma, MCF-7 (ATCC HTB-22) cells were subcutaneously (SC) implanted (2.0×10^7 cells in 1:1 matrigel/media mixture at 0.2 mL/mouse) into the right flank of female athymic (nu/nu) nude mice. Supplemental injections of estradiol cyclopentyl propionate (100 μg/mouse) were administered subcutaneously between the scapulae twice weekly, from one week prior to cell implantation to study completion. Tumor-implanted mice were divided into eleven treatment groups, each group containing six animals, and test agent administrations were initiated one day after cell implantation (denoted as Day 1). 3.1 Test Substances and Dosing Pattern
Two control groups received intravenous injections of vehicle (25 mM Sodium Citrate, pH 6.5+100 mM NaCl) once weekly for either six weeks (group 1) or two weeks (group 2).
Female (nu/nu) nude mice aged 6-7 weeks obtained from BioLasco Taiwan (under Charles River Laboratories Licensee) were used. The animals were housed in individually ventilated cages (IVG, 36 Mini Isolator System). The allocation for 3-5 animals was 27×20×14 in cm. All animals were maintained in a hygienic environment under controlled temperature (20-24° C.) and humidity (30-70%) with 12-hour light/dark cycle. Free access to standard lab diet (Oriental Yeast Co., Ltd., Japan) and autoclaved tap water were granted. All aspects of this work including housing, experimentation, and animal disposal were performed in general accordance with the “Guide for the Care and Use of Laboratory Animals: Eighth Edition” (National Academies Press, Washington, D.C., 2011) in our AAALAC-accredited laboratory animal facility. In addition, the animal care and use protocol was reviewed and approved by the IACUC at Eurofins Panlabs Taiwan, Ltd.
The tumor volumes, body weights, mortality, and signs of overt toxicity were monitored and recorded twice weekly for 77 days. Tumor volume (mm^3) was calculated according to the formula for a prolate ellipsoid: length (mm)×[width (mm)]^2×0.5. Tumor growth inhibition was calculated as T/C (treatment/control)×100%. A T/C value≤42% was considered significant anti-tumor activity. Two-way ANOVA followed by Bonferroni test was used to ascertain the statistical significance of groups compared to respective vehicle control (*p<0.05).

[2] = tested on: HPAC tumor cells (ATCC CRL-2119) human pancreatic cancer; test: HPAC human pancreatic cancer xenograft model in male BALB/c nude mice: tumor volume, T/C, TGI; assay type: in vivo; conditions: for Tumor Volume (mm^3), Mean: group mean; for Tumor Volume (mm^3), Mean / Tumor Volume (mm^3): QW x 4, ADC (OBI-999) and OBI-888 10 mg/kg IV, MMAE 0.191 mg/kg IP; for Tumor Volume (mm^3): individual animals
Procedure: The HPAC tumor cells (ATCC CRL-2119) were maintained in vitro as a monolayer culture in 1:1 mixture of Dulbecco's modified Eagle's medium and Ham's F12 medium containing 1.2 g/L sodium bicarbonate, 2.5 mM L-glutamine, 15 mM HEPES and 0.5 mM sodium pyruvate supplemented with 0.002 mg/mL insulin, 0.005 mg/mL transferrin, 40 ng/mL hydrocortisone, 10 ng/mL epidermal growth factor and 5% fetal bovine serum, 100 U/mL penicillin and 100 μg/mL streptomycin at 37° C. in an atmosphere of 5% CO2 in air. The tumor cells were routinely subcultured twice weekly by trypsin-EDTA treatment. The cells growing in an exponential growth phase were harvested and counted for tumor inoculation.
The endpoint was to determine the anti-tumor effects of testing compounds. Tumor size was measured twice weekly in two dimensions using a caliper, and the volume was expressed in mm^3 using the formula: V=0.5 a×b^2 where a and b are the long and short diameters of the tumor, respectively. The tumor size was then used for calculation of T/C values. The T/C value (in percent) is an indication of antitumor effectiveness; T and C are the mean volumes of the treated and control groups, respectively, on a given day. TGI was calculated for each group using the formula: TGI (%)=[1−(Ti−T0)/(Vi−V0)]×100; Ti is the average tumor volume of a treatment group on a given day, T0 is the average tumor volume of the treatment group on day 0, Vi is the average tumor volume of the vehicle control group on the same day with Ti, and V0 is the average tumor volume of the vehicle group on day 0.
Summary statistics, including mean and the standard error of the mean (SEM), are provided for the tumor volume of each group at each time point. Statistical analysis of difference in the tumor volume among the groups were conducted on the data obtained at the best therapeutic time point after the final dose (the 37th day after grouping). A one-way ANOVA was performed to compare the tumor volume among groups, and when a significant F-statistics (a ratio of treatment variance to the error variance) was obtained, comparisons between groups were carried out with Games-Howell test, otherwise they were carried out with Dunnett (2 sided) test. […] All data were analyzed using SPSS 17.0. p<0.05 was considered to be statistically significant.

[3] = 0.191 mg/kg IP once weekly for four weeks, single agent, Day 37

For `CC[C@H](C)[C@@H]([C@@H](CC(=O)N1CCC[C@H]1[C@H](OC)[C@@H](C)C(=O)N[C@H](C)[C@@H](O)c1ccccc1)OC)N(C)C(=O)[C@@H](NC(=O)[C@@H](NC)C(C)C)C(C)C` [MMAE, monomethyl auristatin E] (H-[NMeV]V[Dil][Dolaproine]-X1), the “Body Weight (g), individual animals No. 1-6” value ([1]; 0.057 mg/kg × 6, IV once weekly, Day 53) was 26 g (3×) and 28 g and 22 g and 24 g, the “Body Weight (g), individual animals No. 1-6” value ([1]; 0.057 mg/kg × 6, IV once weekly, Day 56) was 24 g and 27 g and 26 g (2×) and 23 g and 25 g and the “Body Weight (g), individual animals No. 1-6” value ([1]; 0.057 mg/kg × 6, IV once weekly, Day 60) was 27 g (3×) and 28 g and 24 g and 26 g. For the same molecule, the “Body Weight (g), individual animals No. 1-6” value ([1]; 0.057 mg/kg × 6, IV once weekly, Day 63) was 27 g (2×) and 26 g (2×) and 29 g and 24 g, the “Body Weight (g), individual animals No. 1-6” value ([1]; 0.057 mg/kg × 6, IV once weekly, Day 67) was 27 g (2×) and 28 g (2×) and 26 g and 25 g and the “Body Weight (g), individual animals No. 1-6” value ([1]; 0.057 mg/kg × 6, IV once weekly, Day 70) was 27 g and 28 g (2×) and 25 g (2×) and 26 g. For the same molecule, the “Body Weight (g), Mean” value ([1]; 0.057 mg/kg × 6, IV once weekly, Day 74, group mean) was 26.7 g, the “Body Weight (g), individual animals No. 1-6” value ([1]; 0.057 mg/kg × 6, IV once weekly, Day 74) was 27 g (2×) and 29 g and 24 g and 25 g and 28 g and the “Body Weight (g), individual animals No. 1-6” value ([1]; 0.057 mg/kg × 6, IV once weekly, Day 77) was 28 g and 29 g and 23 g and 27 g (2×) and 24 g. The “Body Weight (g), individual mice” value ([1]; 0.057 mg/kg × 6 IV once weekly, Day 1) was 23 g (2×) and 22 g (2×) and 24 g and 21 g, the “Body Weight (g), Mean” value ([1]; 0.057 mg/kg × 6 IV once weekly, Day 1, mean of 6 mice) was 22.5 g and the “Body Weight (g), individual mice” value ([1]; 0.057 mg/kg × 6 IV once weekly, Day 5) was 24 g (3×) and 22 g (3×). The “Body Weight (g), Mean” value ([1]; 0.057 mg/kg × 6 IV once weekly, Day 5, mean of 6 mice) was 23.0 g, the “Body Weight (g), individual mice” value ([1]; 0.057 mg/kg × 6 IV once weekly, Day 8) was 26 g and 23 g (2×) and 24 g (2×) and 25 g and the “Body Weight (g), Mean” value ([1]; 0.057 mg/kg × 6 IV once weekly, Day 8, mean of 6 mice) was 24.2 g. For the same molecule, the “Body Weight (g), individual mice” value ([1]; 0.057 mg/kg × 6 IV once weekly, Day 12) was 26 g and 24 g (2×) and 25 g (3×), the “Body Weight (g), individual mice” value ([1]; 0.057 mg/kg × 6 IV once weekly, Day 15) was 27 g and 25 g (4×) and 26 g and the “Body Weight (g), individual mice” value ([1]; 0.057 mg/kg × 6 IV once weekly, Day 19) was 26 g and 24 g and 25 g (4×). The “Body Weight (g), Mean” value ([1]; 0.057 mg/kg × 6 IV once weekly, Day 19, mean of 6 mice) was 25.0 g, the “Body Weight (g), individual mice” value ([1]; 0.057 mg/kg × 6 IV once weekly, Day 22) was 27 g and 25 g (2×) and 24 g and 26 g (2×) and the “Body Weight (g), individual mice” value ([1]; 0.057 mg/kg × 6 IV once weekly, Day 26) was 27 g and 25 g (2×) and 24 g (2×) and 26 g. The “antitumor activity (in words)” value ([2]; 0.191 mg/kg IP once weekly for four weeks, single agent) was “minor antitumor activity”, the T/C [2, 3] was 75.8% and the TGI [2, 3] was 25.2%. The mean tumor size [2, 3] was 1,644 mm^3, the “Tumor Volume (mm^3), Mean” value ([2]; Day 0) was 85 mm^3 and the “Tumor Volume (mm^3)” value ([2]; Day 0) was 58 mm^3 and 53 mm^3 and 132 mm^3 and 72 mm^3 and 86 mm^3 and 116 mm^3 and 71 mm^3 and 91 mm^3. The “Tumor Volume (mm^3), Mean” value ([2]; Day 3) was 114 mm^3, the “Tumor Volume (mm^3)” value ([2]; Day 3) was 128 mm^3 (2×) and 76 mm^3 and 148 mm^3 and 82 mm^3 and 158 mm^3 and 57 mm^3 and 137 mm^3 and the “Tumor Volume (mm^3), Mean” value ([2]; Day 7) was 134 mm^3. For the same molecule, the “Tumor Volume (mm^3)” value ([2]; Day 7) was 104 mm^3 and 114 mm^3 and 177 mm^3 and 144 mm^3 and 97 mm^3 and 167 mm^3, the “Tumor Volume (mm^3), Mean” value ([2]; Day 10) was 245 mm^3 and the “Tumor Volume (mm^3)” value ([2]; Day 10) was 444 mm^3 and 196 mm^3 and 219 mm^3 and 160 mm^3 and 207 mm^3. The “Tumor Volume (mm^3), Mean” value ([2]; Day 14) was 385 mm^3, the “Tumor Volume (mm^3)” value ([2]; Day 14) was 429 mm^3 and 418 mm^3 (2×) and 268 mm^3 and 390 mm^3 and the “Tumor Volume (mm^3), Mean” value ([2]; Day 17) was 464 mm^3. For the same molecule, the “Tumor Volume (mm^3)” value ([2]; Day 17) was 590 mm^3 and 452 mm^3 and 510 mm^3 and 321 mm^3 and 448 mm^3, the “Tumor Volume (mm^3), Mean” value ([2]; Day 21) was 551 mm^3 and the “Tumor Volume (mm^3)” value ([2]; Day 21) was 649 mm^3 and 692 mm^3 and 581 mm^3 and 383 mm^3 and 451 mm^3. The “Tumor Volume (mm^3), Mean” value ([2]; Day 24) was 672 mm^3, the “Tumor Volume (mm^3)” value ([2]; Day 24) was 748 mm^3 and 705 mm^3 and 822 mm^3 and 511 mm^3 and 571 mm^3 and the “Tumor Volume (mm^3), Mean” value ([2]; Day 28) was 858 mm^3. The “Tumor Volume (mm^3)” value ([2]; Day 28) was 1080 mm^3 and 888 mm^3 and 913 mm^3 and 623 mm^3 and 785 mm^3, the “Tumor Volume (mm^3), Mean” value ([2]; Day 31) was 1194 mm^3 and the “Tumor Volume (mm^3)” value ([2]; Day 31) was 1174 mm^3 and 1340 mm^3 and 1439 mm^3 and 1030 mm^3 and 989 mm^3. The “Tumor Volume (mm^3), Mean” value ([2]; Day 35) was 1449 mm^3, the “Tumor Volume (mm^3)” value ([2]; Day 35) was 1650 mm^3 and 1656 mm^3 and 1496 mm^3 and 1236 mm^3 and 1208 mm^3 and the “Tumor Volume (mm^3), Mean” value ([2]; Day 37) was 1644 mm^3. For the same molecule, the “Tumor Volume (mm^3)” value ([2]; Day 37) was 1652 mm^3 and 1963 mm^3 and 1828 mm^3 and 1196 mm^3 and 1580 mm^3.
